pEC50: −log10 of the molar value.
Key:
Type in all cases: cell-based
SMARCA4 = molecular target: T1, SMARCA4 (Homo sapiens, UniProt P51532); test: SMARCA4 degradation in VCaP cells by Western blot; conditions: at 100 nM; for Percent SMARCA4 degradation at 0.1 µM: VCaP, 16 h
T1 construct: endogenous in cells; host or cells: VCaP (ATCC CRL-2876)
Protocol: (§1) Example-P2: Determination of SMARCA2 and SMARCA4 Degradation in VCaP Cells by Western Blot
(§2) VCaP (ATCC CRL-2876) was plated in 6 well plates using complete Dulbecco's Modified Eagle's Medium. On the third day, compounds of present invention were added to cells from 10 mM stocks made in DMSO (Sigma Cat no. D2650). Each compound was tested at 100 nM concentration with DMSO not exceeding final percentage of 0.3 in the cells. Cells were incubated with the compound for 16 hours followed by harvesting with 1×RIPA lysis buffer (Thermo Fischer, catalogue number #89900) containing protease inhibitor cocktail (Sigma catalogue number #P-8340). Equal amount of protein was loaded on SDS PAGE gel for electrophoresis. Western blot was carried out for detection of either SMARCA2 (Cell signalling technologies, catalogue number #11966) or SMARCA4 antibody (Cell signalling technologies, catalogue number #52251). Beta-Tubulin antibody (Cell signalling technologies, catalogue number #86298) was used as loading control. Percentage of SMARCA2 or SMARCA4 degradation was calculated by using formula: […]

VCaP cells = test: Anti proliferative activity in VCaP cell line by CellTiter Glo assay; conditions: Homo sapiens; for pEC50: VCaP, 192 h, 8 days incubation, CellTiter Glo luminescence
Protocol: Example-P1: Determination of Anti Proliferative Activity of Compounds in Cell Lines VCaP by Cell Titer Glo©(Promega) Assay
VCaP (ATCC CRL-2876) cells were seeded in 96 well plate flat black clear bottom plates (Corning, Cat. No 3904) using complete DMEM Medium. Next day, compounds listed in the present invention were added to cells from 10 mM stocks made in DMSO (Sigma Cat no. D2650). Each concentration of compound was tested in triplicate with DMSO concentration at a final percentage not exceeding 0.3 in the cells. After the incubation of VCaP cells with compound for 8 days assay was terminated using 50 μl of CellTiter Glo© reagent (Promega, Cat. no G7572). CellTiter-Glo® Luminescent reagent determines the number of viable cells based on quantitation of ATP present which is an indicator of cell number and metabolic activity. Luminescence readings were taken in Victor-3 instrument. Percent inhibition of proliferation was calculated using formula, % inhibition=100−(luminescence value of test/luminescence value of DMSO control)*100. DMSO control (0%)=Cells in complete media with DMSO; blank=Media alone containing DMSO. EC50 was calculated using graph pad prism software.
Herein the group “A” refers to EC50 values lower than l0 nM, group “B” refers to EC50 values between l0 nM-100 nM (both inclusive) and group “C” refers to EC50 values greater than 100 nM.

SMARCA2 = molecular target: T2, SMARCA2 (Homo sapiens, UniProt P51531); test: SMARCA2 degradation in VCaP cells by Western blot; conditions: at 100 nM, 16 hours
T2 construct: endogenous in cells; host or cells: VCaP (ATCC CRL-2876)
T2 sequence (P51531 whole entry): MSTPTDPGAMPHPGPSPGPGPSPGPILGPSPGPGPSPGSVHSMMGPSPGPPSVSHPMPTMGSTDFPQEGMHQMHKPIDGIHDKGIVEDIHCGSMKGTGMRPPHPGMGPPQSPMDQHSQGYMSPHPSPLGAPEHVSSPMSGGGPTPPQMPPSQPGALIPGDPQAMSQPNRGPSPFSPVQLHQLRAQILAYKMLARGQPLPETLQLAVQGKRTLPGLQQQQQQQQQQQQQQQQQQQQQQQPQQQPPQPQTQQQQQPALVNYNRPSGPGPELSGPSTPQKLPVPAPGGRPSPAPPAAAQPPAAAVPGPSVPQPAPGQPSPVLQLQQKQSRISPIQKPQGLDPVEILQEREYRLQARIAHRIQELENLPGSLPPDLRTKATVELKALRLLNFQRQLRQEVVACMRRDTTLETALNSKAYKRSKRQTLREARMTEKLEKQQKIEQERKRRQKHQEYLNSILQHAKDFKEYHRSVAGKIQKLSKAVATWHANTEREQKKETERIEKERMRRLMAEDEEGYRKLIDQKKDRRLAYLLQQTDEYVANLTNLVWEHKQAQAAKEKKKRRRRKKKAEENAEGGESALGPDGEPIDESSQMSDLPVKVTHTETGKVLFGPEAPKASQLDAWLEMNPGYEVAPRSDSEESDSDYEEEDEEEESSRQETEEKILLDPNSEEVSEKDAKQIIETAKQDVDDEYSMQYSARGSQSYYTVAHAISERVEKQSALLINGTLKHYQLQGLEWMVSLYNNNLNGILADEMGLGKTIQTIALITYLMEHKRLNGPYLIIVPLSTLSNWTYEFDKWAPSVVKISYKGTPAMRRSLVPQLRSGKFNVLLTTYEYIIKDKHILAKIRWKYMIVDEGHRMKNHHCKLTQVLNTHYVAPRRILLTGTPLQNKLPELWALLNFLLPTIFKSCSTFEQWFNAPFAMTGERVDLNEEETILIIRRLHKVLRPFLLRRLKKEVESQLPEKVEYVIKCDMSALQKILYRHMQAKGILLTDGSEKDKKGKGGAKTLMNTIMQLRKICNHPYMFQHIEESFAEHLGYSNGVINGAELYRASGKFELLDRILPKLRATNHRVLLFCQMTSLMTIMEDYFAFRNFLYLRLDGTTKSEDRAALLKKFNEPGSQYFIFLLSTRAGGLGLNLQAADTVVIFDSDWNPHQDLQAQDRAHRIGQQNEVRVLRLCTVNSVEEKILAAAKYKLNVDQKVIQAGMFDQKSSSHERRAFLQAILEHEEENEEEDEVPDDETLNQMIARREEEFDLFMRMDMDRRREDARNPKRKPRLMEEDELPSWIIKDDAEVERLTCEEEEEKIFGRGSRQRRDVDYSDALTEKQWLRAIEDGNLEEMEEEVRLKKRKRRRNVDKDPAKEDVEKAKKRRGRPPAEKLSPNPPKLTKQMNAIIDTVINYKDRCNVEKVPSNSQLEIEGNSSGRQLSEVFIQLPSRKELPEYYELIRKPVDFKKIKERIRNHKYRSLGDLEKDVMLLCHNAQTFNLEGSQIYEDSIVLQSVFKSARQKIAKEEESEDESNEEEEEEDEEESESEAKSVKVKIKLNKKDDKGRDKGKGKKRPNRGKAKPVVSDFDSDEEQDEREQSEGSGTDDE
Protocol: as §1, §2

T1 sequence (P51532 whole entry): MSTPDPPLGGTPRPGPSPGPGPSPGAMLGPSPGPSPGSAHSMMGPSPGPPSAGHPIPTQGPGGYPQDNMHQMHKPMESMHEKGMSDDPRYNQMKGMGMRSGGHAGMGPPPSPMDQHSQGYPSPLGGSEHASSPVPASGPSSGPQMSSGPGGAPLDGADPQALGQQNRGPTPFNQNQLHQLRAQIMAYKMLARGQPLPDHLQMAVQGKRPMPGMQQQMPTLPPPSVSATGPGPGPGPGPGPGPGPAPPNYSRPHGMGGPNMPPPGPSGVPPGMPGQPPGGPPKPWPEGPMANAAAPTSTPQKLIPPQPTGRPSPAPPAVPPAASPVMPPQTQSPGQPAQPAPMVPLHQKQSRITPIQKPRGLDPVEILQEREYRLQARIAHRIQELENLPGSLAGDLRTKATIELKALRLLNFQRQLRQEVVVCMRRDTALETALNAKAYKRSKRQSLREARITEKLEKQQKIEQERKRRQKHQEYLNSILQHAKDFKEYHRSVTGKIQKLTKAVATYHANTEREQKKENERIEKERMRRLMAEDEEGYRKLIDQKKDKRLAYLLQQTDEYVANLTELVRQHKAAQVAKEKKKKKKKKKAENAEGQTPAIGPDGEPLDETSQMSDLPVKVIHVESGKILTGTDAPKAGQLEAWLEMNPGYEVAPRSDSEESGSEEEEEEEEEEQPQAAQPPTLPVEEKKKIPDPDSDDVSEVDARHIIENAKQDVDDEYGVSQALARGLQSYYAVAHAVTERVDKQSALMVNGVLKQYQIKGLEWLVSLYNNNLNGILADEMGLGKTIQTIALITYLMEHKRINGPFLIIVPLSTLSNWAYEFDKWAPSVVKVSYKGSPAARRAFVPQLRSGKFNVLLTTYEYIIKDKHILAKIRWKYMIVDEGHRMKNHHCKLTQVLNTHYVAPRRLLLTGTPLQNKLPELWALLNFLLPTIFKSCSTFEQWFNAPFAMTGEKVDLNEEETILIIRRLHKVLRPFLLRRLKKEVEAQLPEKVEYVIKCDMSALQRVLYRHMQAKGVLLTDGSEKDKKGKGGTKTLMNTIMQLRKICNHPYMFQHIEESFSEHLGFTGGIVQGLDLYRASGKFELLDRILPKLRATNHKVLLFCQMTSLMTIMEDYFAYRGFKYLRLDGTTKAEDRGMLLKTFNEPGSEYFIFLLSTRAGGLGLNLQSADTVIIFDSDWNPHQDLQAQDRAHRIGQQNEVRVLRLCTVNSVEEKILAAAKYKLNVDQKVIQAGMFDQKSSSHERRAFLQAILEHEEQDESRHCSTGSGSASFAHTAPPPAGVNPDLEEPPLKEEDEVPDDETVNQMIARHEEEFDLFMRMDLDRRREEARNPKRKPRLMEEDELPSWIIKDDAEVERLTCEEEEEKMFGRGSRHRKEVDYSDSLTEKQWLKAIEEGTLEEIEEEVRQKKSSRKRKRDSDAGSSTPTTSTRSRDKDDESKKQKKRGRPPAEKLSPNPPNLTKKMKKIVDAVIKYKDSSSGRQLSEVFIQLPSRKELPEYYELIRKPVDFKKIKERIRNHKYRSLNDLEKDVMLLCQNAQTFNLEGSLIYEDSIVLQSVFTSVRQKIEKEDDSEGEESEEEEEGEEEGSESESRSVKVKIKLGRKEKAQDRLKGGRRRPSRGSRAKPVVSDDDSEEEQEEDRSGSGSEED

| SMILES | Percent SMARCA4 degradation at 0.1 µM (SMARCA4) | pEC50 (VCaP cells) | Percent degradation SMARCA2 (SMARCA2) | Percent degradation SMARCA4 (SMARCA4; 16 hours) | inhibition at 1 µM (VCaP cells; at 1 μM, read-out: % inhibition of proliferation) |
| --- | --- | --- | --- | --- | --- |
| Cc1ncsc1-c1ccc([C@H](C)NC(=O)[C@@H]2C[C@@H](O)CN2C(=O)[C@@H](NC(=O)COc2ccc(-c3cc(-c4cc(F)ccc4O)nnc3N)cc2)C(C)(C)C)cc1 [Compound 1, (2S,4R)-1-((S)-2-(2-(4-(3-amino-6-(5-fluoro-2-hydroxyphenyl)pyridazin-4-yl)phenoxy)acetamido)-3,3-dimethylbutanoyl)-4-hydroxy-N—((S)-1-(4-(4-methylthiazol-5-yl)phenyl)ethyl)pyrrolidine-2-carboxamide] |  | 7.00 to 8.00 |  |  |  |
| Cc1ncsc1-c1ccc([C@H](C)NC(=O)[C@@H]2C[C@@H](O)CN2C(=O)[C@@H](NC(=O)CN2CCN(c3ccc(-c4cc(-c5ccccc5F)nnc4N)cc3)CC2)C(C)(C)C)cc1 [Compound 27, (2S,4R)-1-((S)-2-(2-(4-(4-(3-amino-6-(2-fluorophenyl)pyridazin-4-yl)phenyl)piperazin-1-yl)acetamido)-3,3-dimethylbutanoyl)-4-hydroxy-N—((S)-1-(4-(4-methylthiazol-5-yl)phenyl)ethyl)pyrrolidine-2-carboxamide] | 47% |  | 59% |  |  |
| Cc1ncsc1-c1ccc([C@H](C)NC(=O)[C@@H]2C[C@@H](O)CN2C(=O)[C@@H](NC(=O)CN2CCC(c3cccc(-c4cc(-c5ccccc5O)nnc4N)c3)CC2)C(C)(C)C)cc1 [Compound 46, (2S,4R)-1-((S)-2-(2-(4-(3-(3-amino-6-(2-hydroxyphenyl)pyridazin-4-yl)phenyl)piperidin-1-yl)acetamido)-3,3-dimethylbutanoyl)-4-hydroxy-N-((S)-1-(4-(4-methylthiazol-5-yl)phenyl)ethyl)pyrrolidine-2-carboxamide] | 96% |  | 98% |  |  |
| Cc1ncsc1-c1ccc([C@H](C)NC(=O)[C@@H]2C[C@@H](O)CN2C(=O)[C@@H](NC(=O)Cn2cc(-c3ccc(-c4cc(-c5ccccc5O)nnc4N)cc3)cn2)C(C)(C)C)cc1 [Compound 49, (2S,4R)-1-((S)-2-(2-(4-(4-(3-amino-6-(2-hydroxyphenyl)pyridazin-4-yl)phenyl)-1H-pyrazol-1-yl)acetamido)-3,3-dimethylbutanoyl)-4-hydroxy-N-((S)-1-(4-(4-methylthiazol-5-yl)phenyl)ethyl)pyrrolidine-2-carboxamide] | 0% |  | 66% |  |  |
| Cc1ncsc1-c1ccc([C@H](C)NC(=O)[C@@H]2C[C@@H](O)CN2C(=O)[C@@H](NC(=O)CN2CCC(Nc3ccc(-c4cc(-c5ccccc5O)nnc4N)cc3)CC2)C(C)(C)C)cc1 [Compound 54, (2S,4R)-1-((S)-2-(2-(4-((4-(3-amino-6-(2-hydroxyphenyl)pyridazin-4-yl)phenyl)amino)piperidin-1-yl)acetamido)-3,3-dimethylbutanoyl)-4-hydroxy-N—((S)-1-(4-(4-methylthiazol-5-yl)phenyl)ethyl)pyrrolidine-2-carboxamide] | 97% |  | 99% |  |  |
| Cc1ncsc1-c1ccc([C@H](C)NC(=O)[C@@H]2C[C@@H](O)CN2C(=O)[C@@H](NC(=O)CN2CCC(N(C)c3ccc(-c4cc(-c5ccccc5O)nnc4N)cc3)CC2)C(C)(C)C)cc1 [Compound 55, (2S,4R)-1-((S)-2-(2-(4-((4-(3-amino-6-(2-hydroxyphenyl)pyridazin-4-yl)phenyl)(methyl)amino)piperidin-1-yl)acetamido)-3,3-dimethylbutanoyl)-4-hydroxy-N—((S)-1-(4-(4-methylthiazol-5-yl)phenyl)ethyl)pyrrolidine-2-carboxamide] | 71% |  | 99% |  |  |
| Cc1ncsc1-c1ccc([C@H](C)NC(=O)[C@@H]2C[C@@H](O)CN2C(=O)C(c2cc(N3CCC(N4CCN(c5ccc(-c6cc(-c7ccccc7O)nnc6N)cc5)CC4)CC3)no2)C(C)C)cc1 (stereo partly drawn) [Compound 59, (2S,4R)-1-(2-(3-(4-(4-(4-(3-amino-6-(2-hydroxyphenyl)pyridazin-4-yl)phenyl)piperazin-1-yl)piperidin-1-yl)isoxazol-5-yl)-3-methylbutanoyl)-4-hydroxy-N—((S)-1-(4-(4-methylthiazol-5-yl)phenyl)ethyl)pyrrolidine-2-carboxamide] |  | > 8.00 |  |  |  |
| Cc1ncsc1-c1ccc([C@H](C)NC(=O)[C@@H]2C[C@@H](O)CN2C(=O)C(N2CCC(N3CCN(c4ccc(-c5cc(-c6ccccc6O)nnc5N)cc4)CC3)CC2)C(C)(C)C)cc1 (stereo partly drawn) [Compound 60, (2S,4R)-1-(2-(4-(4-(4-(3-amino-6-(2-hydroxyphenyl)pyridazin-4-yl)phenyl)piperazin-1-yl)piperidin-1-yl)-3,3-dimethylbutanoyl)-4-hydroxy-N—((S)-1-(4-(4-methylthiazol-5-yl)phenyl)ethyl)pyrrolidine-2-carboxamide] |  | < 7.00 |  |  | 20% |

Continued, in another order:

| Percent SMARCA4 degradation at 0.1 µM (SMARCA4) | pEC50 (VCaP cells) | Percent degradation SMARCA2 (SMARCA2) | Percent degradation SMARCA4 (SMARCA4; 16 hours) | SMILES | inhibition at 1 µM (VCaP cells; at 1 μM, read-out: % inhibition of proliferation) |
| --- | --- | --- | --- | --- | --- |
| 0% | < 7.00 | 90% |  | Cc1ncsc1-c1ccc([C@H](C)NC(=O)[C@@H]2C[C@@H](O)CN2C(=O)[C@@H](NC(=O)C(C)N2CCC(c3ccc(-c4cc(-c5ccccc5O)nnc4N)cc3)CC2)C(C)(C)C)cc1 (mixture of isomers) [Compound 32, (2S,4R)-1-((2S)-2-(2-(4-(4-(3-amino-6-(2-hydroxyphenyl)pyridazin-4-yl)phenyl)piperidin-1-yl)propanamido)-3,3-dimethylbutanoyl)-4-hydroxy-N-((S)-1-(4-(4-methylthiazol-5-yl)phenyl)ethyl)pyrrolidine-2-carboxamide] |  |
| 88% | > 8.00 | 97% |  | Cc1ncsc1-c1ccc([C@H](C)NC(=O)[C@@H]2C[C@@H](O)CN2C(=O)[C@@H](NC(=O)CN2CCC(c3ccc(-c4cc(-c5ccccc5O)nnc4N)cc3)CC2C)C(C)(C)C)cc1 (mixture of isomers) [Compound 35, (2S,4R)-1-((2S)-2-(2-(4-(4-(3-amino-6-(2-hydroxyphenyl)pyridazin-4-yl)phenyl)-2-methylpiperidin-1-yl)acetamido)-3,3-dimethylbutanoyl)-4-hydroxy-N-((S)-1-(4-(4-methylthiazol-5-yl)phenyl)ethyl)pyrrolidine-2-carboxamide] |  |
| 45% | > 8.00 | 97% |  | Cc1ncsc1-c1ccc([C@H](C)NC(=O)[C@@H]2C[C@@H](O)CN2C(=O)[C@@H](NC(=O)C2CCC(c3ccc(-c4cc(-c5ccccc5O)nnc4N)cc3)CC2)C(C)(C)C)cc1 (mixture of isomers) [Compound 40, (2S,4R)-1-((S)-2-(4-(4-(3-amino-6-(2-hydroxyphenyl)pyridazin-4-yl)phenyl)cyclohexane-1-carboxamido)-3,3-dimethylbutanoyl)-4-hydroxy-N-((S)-1-(4-(4-methylthiazol-5-yl)phenyl)ethyl)pyrrolidine-2-carboxamide] |  |
| 86% | > 8.00 | 97% |  | Cc1ncsc1-c1ccc([C@H](C)NC(=O)[C@@H]2C[C@@H](O)CN2C(=O)[C@@H](NC(=O)CC2CCC(c3ccc(-c4cc(-c5ccccc5O)nnc4N)cc3)CC2)C(C)(C)C)cc1 (mixture of isomers) [Compound 43, (2S,4R)-1-((S)-2-(2-(4-(4-(3-amino-6-(2-hydroxyphenyl)pyridazin-4-yl)phenyl)cyclohexyl)acetamido)-3,3-dimethylbutanoyl)-4-hydroxy-N-((S)-1-(4-(4-methylthiazol-5-yl)phenyl)ethyl)pyrrolidine-2-carboxamide] |  |
|  | < 7.00 | 91% | 0% | Cc1ncsc1-c1ccc([C@H](C)NC(=O)[C@@H]2C[C@@H](O)CN2C(=O)[C@@H](NC(=O)C(C)N2CCC(c3ccc(-c4cc(-c5ccccc5O)nnc4N)cc3)CC2)C(C)(C)C)cc1 (single isomer, unassigned) [Compound 34] |  |
| 95% |  | 99% |  | Cc1ncsc1-c1ccc([C@H](C)NC(=O)[C@@H]2C[C@@H](O)CN2C(=O)[C@@H](NC(=O)C2CCN(c3ccc(-c4cc(-c5ccccc5O)nnc4N)cc3)CC2)C(C)(C)C)cc1 [Compound 47, 1-(4-(3-amino-6-(2-hydroxyphenyl)pyridazin-4-yl)phenyl)-N-((S)-1-((2S,4R)-4-hydroxy-2-(((S)-1-(4-(4-methylthiazol-5-yl)phenyl)ethyl)carbamoyl)pyrrolidin-1-yl)-3,3-dimethyl-1-oxobutan-2-yl)piperidine-4-carboxamide] |  |

Reference: patent publication US20250145609A1, “3-SUBSTITUTED PYRIDAZINE COMPOUNDS AS SMARCA2 AND/OR SMARCA4 DEGRADERS” (Aurigene Oncology Limited, priority 2022, published 2025)
